Experiments:
[1] = system: A549; test: Antiproliferative activity against human A549 cells assessed as reduction in cell viability after 72 hrs by MTT assay; format: functional, cell-based; conditions: A549, 72 h
[2] = system: HCT-116; test: Antiproliferative activity against human HCT116 cells assessed as reduction in cell viability after 72 hrs by MTT assay; format: functional, cell-based; conditions: HCT-116, 72 h
[3] = system: MDA-MB-231; test: Antiproliferative activity against human MDA-MB-231 cells assessed as reduction in cell viability after 72 hrs by MTT assay; format: functional, cell-based; conditions: MDA-MB-231, 72 h
[4] = system: SK-OV-3; test: Antiproliferative activity against human SKOV3 cells assessed as reduction in cell viability after 72 hrs by MTT assay; format: functional, cell-based; conditions: SK-OV-3, 72 h
[5] = target: Histone deacetylase 3/Nuclear receptor corepressor 2 (HDAC3/NCoR2) (Homo sapiens, UniProt O15379); test: Inhibition of human recombinant full length C-terminal His-tagged HDAC3 (1 to 428 residues)/N-terminal GST-tagged NCOR2 (395 to 489 residues) expressed in baculovirus infected Sf9 cells using Ac-peptide-AMC as substrate preincubated for 15 mins followed by substrate addition and measured after 60 mins by fluorescence based assay
[6] = target: T1, Protein deacetylase HDAC6 (Homo sapiens, UniProt Q9UBN7); test: Inhibition of recombinant human HDAC6 using Ac-peptide-AMC as substrate preincubated for 15 mins followed by substrate addition and measured after 60 mins by fluorescence based assay; conditions: for inhibition (INH): human, 1 h
T1 sequence (Q9UBN7 whole entry): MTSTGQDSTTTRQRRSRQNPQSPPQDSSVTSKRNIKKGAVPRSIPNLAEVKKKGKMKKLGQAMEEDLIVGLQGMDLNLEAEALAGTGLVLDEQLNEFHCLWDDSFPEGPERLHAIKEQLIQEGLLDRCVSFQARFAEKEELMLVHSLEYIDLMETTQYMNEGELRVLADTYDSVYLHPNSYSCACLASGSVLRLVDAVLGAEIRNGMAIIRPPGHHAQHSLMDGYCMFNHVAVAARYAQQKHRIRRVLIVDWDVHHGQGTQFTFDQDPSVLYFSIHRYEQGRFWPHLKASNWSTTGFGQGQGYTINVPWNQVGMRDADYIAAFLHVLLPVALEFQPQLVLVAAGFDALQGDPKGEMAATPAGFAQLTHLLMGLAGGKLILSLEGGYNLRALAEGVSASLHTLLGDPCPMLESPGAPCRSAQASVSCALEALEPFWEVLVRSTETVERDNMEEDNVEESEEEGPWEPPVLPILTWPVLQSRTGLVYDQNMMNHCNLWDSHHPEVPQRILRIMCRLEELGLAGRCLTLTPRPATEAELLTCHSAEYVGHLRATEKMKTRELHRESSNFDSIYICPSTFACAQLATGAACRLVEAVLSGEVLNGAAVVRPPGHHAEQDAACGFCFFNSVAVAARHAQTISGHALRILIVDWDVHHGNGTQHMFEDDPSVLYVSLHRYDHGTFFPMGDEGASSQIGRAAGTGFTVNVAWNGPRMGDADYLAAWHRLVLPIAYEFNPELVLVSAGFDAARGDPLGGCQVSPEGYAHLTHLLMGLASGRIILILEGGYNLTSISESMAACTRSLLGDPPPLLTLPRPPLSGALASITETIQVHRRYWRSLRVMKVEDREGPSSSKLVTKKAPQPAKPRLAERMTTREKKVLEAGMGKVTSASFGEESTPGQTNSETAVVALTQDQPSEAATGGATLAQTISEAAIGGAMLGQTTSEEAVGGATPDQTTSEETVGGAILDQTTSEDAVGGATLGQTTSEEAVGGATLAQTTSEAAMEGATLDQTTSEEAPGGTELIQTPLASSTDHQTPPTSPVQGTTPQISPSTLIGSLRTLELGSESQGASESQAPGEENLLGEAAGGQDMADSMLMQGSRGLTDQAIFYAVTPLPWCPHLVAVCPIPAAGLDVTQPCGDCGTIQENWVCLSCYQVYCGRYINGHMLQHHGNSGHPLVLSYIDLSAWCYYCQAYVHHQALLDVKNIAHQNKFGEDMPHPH

[7] = target: Histone deacetylase 1 (Homo sapiens, UniProt Q13547); test: Inhibition of recombinant full length C-terminal FLAG/His-tagged human HDAC1 expressed in baculovirus infected Sf9 cells using Ac-peptide-AMC as substrate preincubated for 15 mins followed by substrate addition and measured after 60 mins by fluorescence based assay
[8] = target: Histone deacetylase 2 (Homo sapiens, UniProt Q92769); test: biochemical; format: cell-based, Sf9
Description: Inhibition of recombinant full length human HDAC2 expressed in baculovirus infected Sf9 cells using Ac-peptide-AMC as substrate preincubated for 15 mins followed by substrate addition and measured after 60 mins by fluorescence based assay

[9] = target: T2, Histone deacetylase 8 (Homo sapiens, UniProt Q9BY41); test: Inhibition of full length C-terminal His-tagged human HDAC8 expressed in baculovirus infected Sf9 cells using Ac-peptide-AMC as substrate preincubated for 15 mins followed by substrate addition and measured after 240 mins by fluorescence based assay
T2 sequence (Q9BY41 whole entry): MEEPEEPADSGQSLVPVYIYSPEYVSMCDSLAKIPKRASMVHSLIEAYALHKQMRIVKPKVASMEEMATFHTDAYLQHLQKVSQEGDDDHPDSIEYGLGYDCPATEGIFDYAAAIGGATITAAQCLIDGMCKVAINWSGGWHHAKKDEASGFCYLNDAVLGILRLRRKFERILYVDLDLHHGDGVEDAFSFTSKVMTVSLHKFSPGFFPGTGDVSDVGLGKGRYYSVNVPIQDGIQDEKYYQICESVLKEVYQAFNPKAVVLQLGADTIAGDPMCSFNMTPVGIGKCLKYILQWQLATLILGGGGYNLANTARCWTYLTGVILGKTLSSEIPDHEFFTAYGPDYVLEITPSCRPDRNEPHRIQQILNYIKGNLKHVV

[10] = target: Histone deacetylase (Homo sapiens) (UniProt Q13547+O15379+Q9UBN7+Q92769+Q9UQL6+Q8WUI4+Q9BY41+Q96DB2+P56524+Q9UKV0+Q969S8); test: Inhibition of HDAC in human HCT116 cells assessed as increase in histone H3 acetylation after 24 hrs by Western blot analysis; format: cell-based
[11] = target: T1, Protein deacetylase HDAC6; test: Inhibition of HDAC6 in human HCT116 cells assessed as alpha tubulin acetylation at 0.1 to 10000 nM after 24 hrs by Western blot analysis; format: cell-based; conditions: 10 µM
[12] = species: Homo sapiens; test: Selectivity ratio of IC50 for inhibition of recombinant full length human HDAC2 expressed in baculovirus infected Sf9 cells to IC50 for inhibition of recombinant full length C-terminal FLAG/His-tagged human HDAC1 expressed in baculovirus infected Sf9 cells
[13] = species: Homo sapiens; test: Selectivity ratio of IC50 for inhibition of human recombinant full length C-terminal His-tagged HDAC3 (1 to 428 residues)/N-terminal GST-tagged NCOR2 (395 to 489 residues) expressed in baculovirus infected Sf9 cells to IC50 for inhibition recombinant full length C-terminal FLAG/His-tagged human HDAC1 expressed in baculovirus infected Sf9 cells

Histone deacetylase 3/Nuclear receptor corepressor 2 (HDAC3/NCoR2), sequence (O15379 whole entry, the tested form may be a part): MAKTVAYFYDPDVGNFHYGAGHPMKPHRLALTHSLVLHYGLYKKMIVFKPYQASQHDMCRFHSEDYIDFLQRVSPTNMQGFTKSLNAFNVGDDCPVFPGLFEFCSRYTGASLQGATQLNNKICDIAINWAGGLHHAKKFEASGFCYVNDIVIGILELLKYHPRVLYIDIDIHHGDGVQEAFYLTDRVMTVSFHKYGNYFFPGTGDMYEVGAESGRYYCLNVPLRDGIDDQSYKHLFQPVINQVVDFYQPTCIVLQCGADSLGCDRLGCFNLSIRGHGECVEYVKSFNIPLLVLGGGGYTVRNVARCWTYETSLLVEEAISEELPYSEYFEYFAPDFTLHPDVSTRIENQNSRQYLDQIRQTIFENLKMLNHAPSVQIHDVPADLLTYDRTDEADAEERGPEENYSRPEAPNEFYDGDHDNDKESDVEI
Histone deacetylase 3/Nuclear receptor corepressor 2 (HDAC3/NCoR2), sequence (Q9Y618 whole entry, further chain, the tested form may be a part): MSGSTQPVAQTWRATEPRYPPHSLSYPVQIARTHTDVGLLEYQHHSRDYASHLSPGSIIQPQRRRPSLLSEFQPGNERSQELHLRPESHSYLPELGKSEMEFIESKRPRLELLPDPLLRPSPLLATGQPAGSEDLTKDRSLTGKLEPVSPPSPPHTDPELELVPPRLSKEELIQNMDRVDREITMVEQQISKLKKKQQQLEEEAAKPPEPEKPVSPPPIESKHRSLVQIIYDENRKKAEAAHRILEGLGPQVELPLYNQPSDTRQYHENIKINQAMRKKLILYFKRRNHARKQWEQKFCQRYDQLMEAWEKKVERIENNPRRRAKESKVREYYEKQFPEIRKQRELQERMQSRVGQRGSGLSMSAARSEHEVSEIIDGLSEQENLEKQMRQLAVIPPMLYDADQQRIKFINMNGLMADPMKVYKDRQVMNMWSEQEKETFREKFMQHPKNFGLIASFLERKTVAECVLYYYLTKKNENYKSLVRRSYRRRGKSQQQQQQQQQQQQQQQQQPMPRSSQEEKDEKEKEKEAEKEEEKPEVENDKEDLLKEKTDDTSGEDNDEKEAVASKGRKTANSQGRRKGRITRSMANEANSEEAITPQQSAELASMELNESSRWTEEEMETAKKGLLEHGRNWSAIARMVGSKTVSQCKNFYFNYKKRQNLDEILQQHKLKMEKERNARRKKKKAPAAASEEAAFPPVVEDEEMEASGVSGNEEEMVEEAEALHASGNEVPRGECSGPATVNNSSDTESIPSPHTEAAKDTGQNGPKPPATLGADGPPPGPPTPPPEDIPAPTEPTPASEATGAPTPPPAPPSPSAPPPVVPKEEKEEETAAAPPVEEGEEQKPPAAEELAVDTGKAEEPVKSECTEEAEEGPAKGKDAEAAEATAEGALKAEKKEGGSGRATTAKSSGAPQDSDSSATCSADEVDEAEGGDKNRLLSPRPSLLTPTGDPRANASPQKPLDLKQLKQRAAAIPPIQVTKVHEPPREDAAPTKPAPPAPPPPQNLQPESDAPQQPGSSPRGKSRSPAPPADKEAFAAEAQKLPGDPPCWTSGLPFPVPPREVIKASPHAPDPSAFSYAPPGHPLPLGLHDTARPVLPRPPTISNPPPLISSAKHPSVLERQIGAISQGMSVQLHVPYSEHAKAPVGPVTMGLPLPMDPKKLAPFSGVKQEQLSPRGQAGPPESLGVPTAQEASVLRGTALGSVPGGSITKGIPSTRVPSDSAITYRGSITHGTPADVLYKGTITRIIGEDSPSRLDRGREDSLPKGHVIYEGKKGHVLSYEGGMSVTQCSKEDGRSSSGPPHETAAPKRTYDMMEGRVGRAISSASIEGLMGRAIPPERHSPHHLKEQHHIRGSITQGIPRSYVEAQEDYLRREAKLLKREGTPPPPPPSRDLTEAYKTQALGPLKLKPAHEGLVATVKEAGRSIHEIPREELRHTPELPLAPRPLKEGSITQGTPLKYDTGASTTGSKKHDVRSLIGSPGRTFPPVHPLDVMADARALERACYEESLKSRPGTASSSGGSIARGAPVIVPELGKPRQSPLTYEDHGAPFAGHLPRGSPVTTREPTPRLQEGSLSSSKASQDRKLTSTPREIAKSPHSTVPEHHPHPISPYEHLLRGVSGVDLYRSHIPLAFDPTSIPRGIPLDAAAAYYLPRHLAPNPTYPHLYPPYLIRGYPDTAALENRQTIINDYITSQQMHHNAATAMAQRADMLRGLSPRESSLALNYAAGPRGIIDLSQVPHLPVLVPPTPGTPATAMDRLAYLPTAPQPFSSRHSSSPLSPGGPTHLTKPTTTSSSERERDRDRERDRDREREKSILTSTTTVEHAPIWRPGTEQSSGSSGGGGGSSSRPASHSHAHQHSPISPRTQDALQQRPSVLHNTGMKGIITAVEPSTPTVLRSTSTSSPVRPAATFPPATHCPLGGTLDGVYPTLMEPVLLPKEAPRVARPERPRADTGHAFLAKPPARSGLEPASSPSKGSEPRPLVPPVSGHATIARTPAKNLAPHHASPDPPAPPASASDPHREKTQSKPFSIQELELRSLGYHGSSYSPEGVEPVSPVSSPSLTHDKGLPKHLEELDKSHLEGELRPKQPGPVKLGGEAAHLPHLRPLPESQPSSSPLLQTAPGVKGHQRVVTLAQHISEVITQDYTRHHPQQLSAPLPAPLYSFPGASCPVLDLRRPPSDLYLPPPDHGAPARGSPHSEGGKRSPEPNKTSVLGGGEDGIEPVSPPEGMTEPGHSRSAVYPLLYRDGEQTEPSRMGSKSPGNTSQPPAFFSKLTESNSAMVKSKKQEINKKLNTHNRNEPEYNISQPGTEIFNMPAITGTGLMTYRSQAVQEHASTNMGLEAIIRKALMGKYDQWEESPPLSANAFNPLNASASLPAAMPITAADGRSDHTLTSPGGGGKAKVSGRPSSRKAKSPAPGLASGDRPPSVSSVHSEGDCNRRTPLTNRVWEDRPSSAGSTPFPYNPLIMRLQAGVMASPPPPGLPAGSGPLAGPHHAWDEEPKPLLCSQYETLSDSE
Histone deacetylase 1, sequence (Q13547 whole entry): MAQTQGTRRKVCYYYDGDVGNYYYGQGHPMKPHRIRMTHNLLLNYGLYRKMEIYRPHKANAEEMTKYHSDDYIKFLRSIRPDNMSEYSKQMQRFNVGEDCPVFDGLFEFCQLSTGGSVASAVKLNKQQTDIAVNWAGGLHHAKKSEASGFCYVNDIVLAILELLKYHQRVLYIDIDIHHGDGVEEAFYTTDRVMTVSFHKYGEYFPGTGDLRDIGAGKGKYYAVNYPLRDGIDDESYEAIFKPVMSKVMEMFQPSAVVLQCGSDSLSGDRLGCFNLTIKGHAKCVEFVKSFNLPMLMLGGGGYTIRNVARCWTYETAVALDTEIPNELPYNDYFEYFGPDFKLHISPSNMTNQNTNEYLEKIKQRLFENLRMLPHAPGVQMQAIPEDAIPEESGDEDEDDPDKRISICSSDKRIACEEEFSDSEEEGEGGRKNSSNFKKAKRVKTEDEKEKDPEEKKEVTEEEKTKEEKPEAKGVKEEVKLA
Histone deacetylase 2, sequence (Q92769 whole entry): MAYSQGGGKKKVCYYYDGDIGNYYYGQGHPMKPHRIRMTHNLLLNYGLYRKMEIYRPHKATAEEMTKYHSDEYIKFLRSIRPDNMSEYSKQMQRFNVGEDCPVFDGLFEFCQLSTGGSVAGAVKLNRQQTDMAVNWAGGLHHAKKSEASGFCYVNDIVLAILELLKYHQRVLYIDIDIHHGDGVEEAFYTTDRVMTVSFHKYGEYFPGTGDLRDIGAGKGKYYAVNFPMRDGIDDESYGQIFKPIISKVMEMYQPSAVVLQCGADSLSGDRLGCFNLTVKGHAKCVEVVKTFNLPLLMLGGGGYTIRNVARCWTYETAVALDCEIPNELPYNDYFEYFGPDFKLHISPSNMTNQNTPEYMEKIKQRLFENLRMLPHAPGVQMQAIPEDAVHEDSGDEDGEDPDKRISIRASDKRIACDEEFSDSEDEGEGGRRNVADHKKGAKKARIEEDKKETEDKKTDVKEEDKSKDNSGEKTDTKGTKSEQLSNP

SMILES | IC50 [1] [nM] | IC50 [2] [nM] | IC50 [3] [nM] | IC50 [4] [nM] | IC50 [5] [nM] | IC50 [6] [nM] | inhibition (INH) [6] | IC50 [7] [nM] | IC50 [8] [nM] | IC50 [9] [nM] | also measured
CCCCCCCC(=O)SCC/C=C(\F)[C@@H]1CC(=O)NCc2nc(cs2)C2=N[C@@](C)(CS2)C(=O)N[C@@H](C(C)C)C(=O)N1 | > 10000 | 6620 | > 10000 | > 10000 |  |  |  |  |  |  | 
CCCCCCCC(=O)SCC/C=C(\F)[C@@H]1CC(=O)NCc2nc(cs2)C2=N[C@@](C)(CS2)C(=O)N[C@@H](C(C)C)C(=O)O1 | 520 | 810 | 3850 | 240 | 2300 | > 5000 | Dose-dependent effect |  |  |  | 
CC(C)[C@@H]1NC(=O)[C@]2(C)CSC(=N2)c2csc(n2)CNC(=O)C[C@@H](/C=C/CCS)OC1=O |  |  |  |  |  |  | Dose-dependent effect |  |  |  | 
CCCCCCCC(=O)SCC(F)(F)/C=C/[C@@H]1CC(=O)NCc2nc(cs2)C2=N[C@@](C)(CS2)C(=O)N[C@@H](C(C)C)C(=O)O1 | > 10000 | > 10000 | > 10000 | > 10000 |  |  |  |  |  |  | 
O=C(CCCCCCC(=O)Nc1ccccc1)NO [VORINOSTAT] |  |  |  |  |  |  | Dose-dependent effect |  |  |  | 
CC(C)[C@@H]1NC(=O)[C@]2(C)CSC(=N2)c2csc(n2)CNC(=O)C(F)(F)[C@@H](/C=C/CCS)NC1=O |  |  |  |  | 7.43 | 1410 | Dose-dependent effect | 6.31 | 9.25 | 166 | 
CCCCCCCC(=O)SCC/C=C/[C@H]1NC(=O)[C@H](C(C)C)NC(=O)[C@]2(C)CSC(=N2)c2csc(n2)CNC(=O)C1(F)F | > 10000 | > 10000 | > 10000 | > 10000 |  |  |  |  |  |  | 
CCCCCCCC(=O)SCC/C=C/[C@@H]1CC(=O)NCc2nc(cs2)C2=N[C@@](C)(CS2)C(=O)N[C@@H](C(C)C)C(=O)O1 [LARGAZOLE] | 460 | 44 to 110 | 4750 | 250 |  |  | Dose-dependent effect |  |  |  | 
CCCCCCCC(=O)SCC/C=C(\F)[C@H]1CC(=O)NCc2nc(cs2)C2=N[C@@](C)(CS2)C(=O)N[C@@H](C(C)C)C(=O)O1 | > 10000 | > 10000 | > 10000 | > 10000 |  |  |  |  |  |  | 

Second part, led by results:

IC50 [1] [nM] | IC50 [2] [nM] | IC50 [3] [nM] | IC50 [4] [nM] | IC50 [5] [nM] | IC50 [6] [nM] | inhibition (INH) [6] | IC50 [7] [nM] | IC50 [8] [nM] | IC50 [9] [nM] | SMILES | also measured
 |  |  |  | 3.2 | 19.7 | Dose-dependent effect | 0.46 | 2.46 | 0.41 | CC(C)[C@@H]1NC(=O)[C@]2(C)CSC(=N2)c2csc(n2)CNC(=O)C[C@@H](/C=C(\F)CCS)OC1=O | 
170 | 170 | 4110 | 260 |  |  |  |  |  |  | CCCCCCCC(=O)SCC/C(F)=C/[C@@H]1CC(=O)NCc2nc(cs2)C2=N[C@@](C)(CS2)C(=O)N[C@@H](C(C)C)C(=O)O1 | inhibition [10]: Dose-dependent effect; inhibition (INH) [11]: Not Active
 |  |  |  | 8.53 | 333 | Dose-dependent effect | 2.9 | 7.42 | 27.1 | CC(C)[C@@H]1NC(=O)[C@]2(C)CSC(=N2)c2csc(n2)CNC(=O)C[C@@H](/C(F)=C/CCS)NC1=O | 
 |  |  |  | 51.4 | 1830 | Dose-dependent effect | 78.5 | 95.5 | 378 | CC(C)[C@@H]1NC(=O)[C@]2(C)CSC(=N2)c2csc(n2)CNC(=O)C[C@H](/C(F)=C/CCS)OC1=O | 
 |  |  |  |  |  | Dose-dependent effect |  |  |  | CC(C)[C@@H]1NC(=O)[C@]2(C)CSC(=N2)c2csc(n2)CNC(=O)C[C@@H](/C(F)=C/CCS)OC1=O | 
 |  |  |  | 8.21 | 898 | Dose-dependent effect | 11.9 | 18.5 | 44.1 | CC(C)[C@@H]1NC(=O)[C@]2(C)CSC(=N2)c2csc(n2)CNC(=O)C[C@@H](/C=C/C(F)(F)CS)OC1=O | Ratio IC50 [12]: 79; Ratio IC50 [13]: 79

— ChEMBL document CHEMBL4359920 (Eur J Med Chem, 2019)
